Experimental findings from PubChem BioAssay AID1963852 (Molecular Pharmacology Branch, DTP, NCI, 2024) are described below.

Each structure is given as a SMILES string. Where “and” joins values, the source holds several entries; their conditions need not be identical. Equal entries are not always repeated. Where only a bound is given, the exact number is not on record here.

This experiment concerns 282377-053-R-J1-PDC complex spheroid viability. As to the kind of experiment: Anticancer human tumor 282377-053-R-J1-PDC patient-derived colon adenocarcinoma cell line growth inhibition [POLQ]. To be noted: for viability, T/C: stronger effect = lower value. In short, it runs like this:
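Growth inhibition in 3D: complex spheroids (tumor PDC, HUVEC, MSC) treated with POLQ inhibitor combinations; where Cmax unknown, highest tested concentration 10 microM, except SN-38 at 1 microM.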

The mark [1] stands for this setting: curve of first compound, second compound 0.0316 µM.
Where [2] appears, read: curve of first compound, second compound 0.1 µM.
Setting [3] is: curve of first compound, second compound 0.316 µM.
Setting [4] is: curve of first compound, second compound 1 µM.
The mark [5] stands for this setting: curve of first compound, second compound 3.16 µM.
Where [6] appears, read: curve of first compound, second compound 10 µM.
[7] abbreviates: second compound 0.0316 µM, first compound 0.0316 µM.
Where [8] appears, read: second compound 0.0316 µM, first compound 0.1 µM.
The mark [9] stands for this setting: second compound 0.0316 µM, first compound 0.316 µM.
Where [10] appears, read: second compound 0.0316 µM, first compound 1 µM.
The mark [11] stands for this setting: second compound 0.0316 µM, first compound 3.16 µM.
Where [12] appears, read: second compound 0.0316 µM, first compound 10 µM.
[13] abbreviates: second compound 0.1 µM, first compound 0.0316 µM.
Where [14] appears, read: second compound 0.1 µM, first compound 0.1 µM.
Where [15] appears, read: second compound 0.1 µM, first compound 0.316 µM.
[16] abbreviates: second compound 0.1 µM, first compound 1 µM.
[17] abbreviates: second compound 0.1 µM, first compound 3.16 µM.
Where [18] appears, read: second compound 0.1 µM, first compound 10 µM.
Where [19] appears, read: second compound 0.316 µM, first compound 0.0316 µM.
Where [20] appears, read: second compound 0.316 µM, first compound 0.1 µM.
Where [21] appears, read: second compound 0.316 µM, first compound 0.316 µM.
Setting [22] is: second compound 0.316 µM, first compound 1 µM.
[23] abbreviates: second compound 0.316 µM, first compound 3.16 µM.
Where [24] appears, read: second compound 0.316 µM, first compound 10 µM.
Setting [25] is: second compound 1 µM, first compound 0.0316 µM.
Where [26] appears, read: second compound 1 µM, first compound 0.1 µM.
Setting [27] is: second compound 1 µM, first compound 0.316 µM.
Setting [28] is: second compound 1 µM, first compound 1 µM.
[29] abbreviates: second compound 1 µM, first compound 3.16 µM.
[30] abbreviates: second compound 1 µM, first compound 10 µM.
Where [31] appears, read: second compound 3.16 µM, first compound 0.0316 µM.
The mark [32] stands for this setting: second compound 3.16 µM, first compound 0.1 µM.
[33] abbreviates: second compound 3.16 µM, first compound 0.316 µM.
Where [34] appears, read: second compound 3.16 µM, first compound 1 µM.
Where [35] appears, read: second compound 3.16 µM, first compound 3.16 µM.
Setting [36] is: second compound 3.16 µM, first compound 10 µM.
Setting [37] is: second compound 10 µM, first compound 0.0316 µM.
[38] abbreviates: second compound 10 µM, first compound 0.1 µM.
[39] abbreviates: second compound 10 µM, first compound 0.316 µM.
Where [40] appears, read: second compound 10 µM, first compound 1 µM.
Setting [41] is: second compound 10 µM, first compound 3.16 µM.
Setting [42] is: second compound 10 µM, first compound 10 µM.
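Further: spheroids exposed to compounds for seven days.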
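Wherever viability, T/C is given: 100% = DMSO vehicle control viability.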

`CCc1cc2c(N3CCc4c(cc(Cn5ccnc5)cc4-c4cn(C)nc4C(F)(F)F)C3=O)ccnc2c(OC)n1` + Cc1cccc(N(C)C(=O)C2C(O)CCN2c2nc(C)cc(C(F)(F)F)c2C#N)c1: the IC50 (usually the concentration needed to halve the response being measured) runs as follows: under setting [1], above 10 µM; under setting [2], above 10 µM; under setting [3], above 10 µM; under setting [4], above 10 µM; under setting [5], above 10 µM; under setting [6], above 10 µM. The viability, T/C (commonly the result in the treated group divided by that in the control group, in per cent) runs as follows: under setting [7], 108%; under setting [8], 94.1%; under setting [9], 91%; under setting [10], 110%; under setting [11], 104%; under setting [12], 106%. In addition, the viability, T/C is, setting by setting: under setting [13], 93.4%; under setting [14], 90.9%; under setting [15], 85.8%; under setting [16], 91.4%; under setting [17], 103%; under setting [18], 121%. Further, the viability, T/C is 95% under setting [19]; 94.9% under setting [20]; 89.8% under setting [21]; 86.1% under setting [22]; 104% under setting [23]; 93.8% under setting [24]. Moreover, the viability, T/C is 95.2% under setting [25]; 87.6% under setting [26]; 104% under setting [27]; 101% under setting [28]; 107% under setting [29]; 109% under setting [30]. The viability, T/C reads like this: under setting [31], 98.9%; under setting [32], 91.6%; under setting [33], 101%; under setting [34], 99.6%; under setting [35], 115%; under setting [36], 116%. Moreover, the viability, T/C by setting is: under setting [37], 98.9%; under setting [38], 95.6%; under setting [39], 108%; under setting [40], 96.4%; under setting [41], 111%; under setting [42], 124%.
In the case of `O=C(c1cc(Cc2n[nH]c(=O)c3ccccc23)ccc1F)N1CCN(C(=O)C2CC2)CC1`, the viability, T/C is, setting by setting: (compound 0.0316 µM) 96.2% and 95.6% and 96.1%; (compound 0.1 µM) 94.5% and 97.4% and 107%; (compound 0.316 µM) 118% and 105% and 95.8%; (compound 1 µM) 122% and 110% and 114%; (compound 3.16 µM) 100% and 97.5% and 110%; (compound 10 µM) 95.8% and 105% and 110%. The IC50 (curve of compound) is above 10 µM.
For `CNCc1ccc(-c2[nH]c3cc(F)cc4c3c2CCNC4=O)cc1` + Cc1cccc(N(C)C(=O)C2C(O)CCN2c2nc(C)cc(C(F)(F)F)c2C#N)c1, the IC50 is above 10 µM under setting [1]; above 10 µM under setting [2]; above 10 µM under setting [3]; above 10 µM under setting [4]; above 10 µM under setting [5]; above 10 µM under setting [6]. In addition, the viability, T/C was 122% under setting [7]; 89.9% under setting [8]; 135% under setting [9]; 113% under setting [10]; 122% under setting [11]; 144% under setting [12]. For the same compound, the viability, T/C under setting [13] was 122%; the viability, T/C under setting [14] is 94.3%; the viability, T/C under setting [15] was 98.2%; the viability, T/C under setting [16] was 93%; the viability, T/C under setting [17] is 134%; the viability, T/C under setting [18] is 140%. Besides, the viability, T/C is, setting by setting: under setting [19], 99.1%; under setting [20], 105%; under setting [21], 87.4%; under setting [22], 98.1%; under setting [23], 113%; under setting [24], 124%. For the same compound, the viability, T/C under setting [25] is 117%; the viability, T/C under setting [26] was 98.7%; the viability, T/C under setting [27] was 105%; the viability, T/C under setting [28] was 104%; the viability, T/C under setting [29] was 138%; the viability, T/C under setting [30] is 129%. In addition, the viability, T/C is 85.9% under setting [31]; 114% under setting [32]; 80.2% under setting [33]; 85.1% under setting [34]; 117% under setting [35]; 150% under setting [36]. Moreover, the viability, T/C was 104% under setting [37]; 98.4% under setting [38]; 104% under setting [39]; 103% under setting [40]; 103% under setting [41]; 138% under setting [42].
Regarding `C#Cc1c(F)ccc2cc(O)cc(-c3ncc4c(N5CC6CCC(C5)N6)nc(OCC56CCCN5CC(F)C6)nc4c3F)c12` (stereo not given), the viability, T/C is 64.6% and 97.7% and 80.6% (compound 0.0316 µM); 88.7% and 85.6% and 110% (compound 0.1 µM); 112% and 102% and 114% (compound 0.316 µM); 99.1% and 101% and 114% (compound 1 µM); 84% and 93.9% and 105% (compound 3.16 µM); 74.8% and 83.1% and 86.3% (compound 10 µM). Also, for the setting “curve of compound”, the IC50 is above 10 µM.
For the compound `CCc1cc2c(N3CCc4c(cc(Cn5ccnc5)cc4-c4cn(C)nc4C(F)(F)F)C3=O)cc(C)nc2c(OC)n1`, the viability, T/C is, setting by setting: (compound 0.0316 µM) 103% and 99% and 81.1%; (compound 0.1 µM) 120% and 97.4% and 84.6%; (compound 0.316 µM) 124% and 98% and 87.1%; (compound 1 µM) 144% and 89.3% and 98.1%; (compound 3.16 µM) 112% and 113% and 109%; (compound 10 µM) 72.1% and 119% and 109%. In addition, the IC50 (curve of compound) was above 10 µM.
